Laboratory results reported in the NIST ThermoML archive (doi:10.1016/j.jct.2018.11.004).
Where “and” joins values, the source holds several entries; their conditions need not be identical. Identical values can stand only once.

Conditions: for molar entropy: 101.33 kPa, Small (less than 1 g) adiabatic calorimetry

CC(C)[C@@H]1CC[C@@H](C)C[C@H]1O [L-menthol]
Conditions | Triple point temperature [K] | molar entropy [J/K/mol] | vapor or sublimation pressure
5 K, Crystal 1 | – | 0.2864 | –
10 K, Crystal 1 | – | 2.099 | –
15 K, Crystal 1 | – | 5.656 | –
20 K, Crystal 1 | – | 10.35 | –
25 K, Crystal 1 | – | 15.64 | –
30 K, Crystal 1 | – | 21.2 | –
35 K, Crystal 1 | – | 26.81 | –
40 K, Crystal 1 | – | 32.36 | –
45 K, Crystal 1 | – | 37.82 | –
50 K, Crystal 1 | – | 43.18 | –
55 K, Crystal 1 | – | 48.45 | –
60 K, Crystal 1 | – | 53.64 | –
65 K, Crystal 1 | – | 58.76 | –
70 K, Crystal 1 | – | 63.82 | –
75 K, Crystal 1 | – | 68.83 | –
80 K, Crystal 1 | – | 73.79 | –
85 K, Crystal 1 | – | 78.72 | –
90 K, Crystal 1 | – | 83.6 | –
95 K, Crystal 1 | – | 88.45 | –
100 K, Crystal 1 | – | 93.27 | –
105 K, Crystal 1 | – | 98.05 | –
110 K, Crystal 1 | – | 102.8 | –
115 K, Crystal 1 | – | 107.5 | –
120 K, Crystal 1 | – | 112.2 | –
125 K, Crystal 1 | – | 116.8 | –
130 K, Crystal 1 | – | 121.4 | –
135 K, Crystal 1 | – | 126 | –
140 K, Crystal 1 | – | 130.6 | –
145 K, Crystal 1 | – | 135.1 | –
150 K, Crystal 1 | – | 139.5 | –
155 K, Crystal 1 | – | 144 | –
160 K, Crystal 1 | – | 148.4 | –
165 K, Crystal 1 | – | 152.8 | –
170 K, Crystal 1 | – | 157.2 | –
175 K, Crystal 1 | – | 161.5 | –
180 K, Crystal 1 | – | 165.8 | –
185 K, Crystal 1 | – | 170.1 | –
190 K, Crystal 1 | – | 174.4 | –
195 K, Crystal 1 | – | 178.7 | –
200 K, Crystal 1 | – | 182.9 | –
205 K, Crystal 1 | – | 187.1 | –
210 K, Crystal 1 | – | 191.4 | –
215 K, Crystal 1 | – | 195.5 | –
220 K, Crystal 1 | – | 199.7 | –
225 K, Crystal 1 | – | 203.9 | –
230 K, Crystal 1 | – | 208.1 | –
235 K, Crystal 1 | – | 212.2 | –
240 K, Crystal 1 | – | 216.3 | –
245 K, Crystal 1 | – | 220.5 | –
250 K, Crystal 1 | – | 224.6 | –
255 K, Crystal 1 | – | 228.7 | –
260 K, Crystal 1 | – | 232.9 | –
265 K, Crystal 1 | – | 237 | –
270 K, Crystal 1 | – | 241.2 | –
273.64 K, Crystal 1, Closed cell (Static) method | – | – | 0.000244 kPa
273.65 K, Crystal 1, Closed cell (Static) method | – | – | 0.000244 kPa and 0.000242 kPa
275 K, Crystal 1 | – | 245.3 | –
277.38 K, Crystal 1, Closed cell (Static) method | – | – | 0.000399 kPa
277.41 K, Crystal 1, Closed cell (Static) method | – | – | 0.000401 kPa
277.5 K, Crystal 1, Closed cell (Static) method | – | – | 0.000403 kPa
278.15 K, Crystal 1, Closed cell (Static) method | – | – | 0.000441 kPa and 0.00044 kPa
278.16 K, Crystal 1, Closed cell (Static) method | – | – | 0.00044 kPa
280 K, Crystal 1 | – | 249.5 | –
282.34 K, Crystal 1, Closed cell (Static) method | – | – | 0.000758 kPa and 0.000756 kPa and 0.000759 kPa
283.15 K, Crystal 1, Closed cell (Static) method | – | – | 0.000839 kPa and 0.00084 kPa
285 K, Crystal 1 | – | 253.6 | –
286.97 K, Crystal 1, Closed cell (Static) method | – | – | 0.001352 kPa and 0.001354 kPa
286.98 K, Crystal 1, Closed cell (Static) method | – | – | 0.001355 kPa
288.15 K, Crystal 1, Closed cell (Static) method | – | – | 0.001557 kPa and 0.001559 kPa
288.16 K, Crystal 1, Closed cell (Static) method | – | – | 0.001558 kPa
290 K, Crystal 1 | – | 257.8 | –
291.56 K, Crystal 1, Closed cell (Static) method | – | – | 0.002353 kPa
291.57 K, Crystal 1, Closed cell (Static) method | – | – | 0.002354 kPa
291.6 K, Crystal 1, Closed cell (Static) method | – | – | 0.002364 kPa
293.14 K, Crystal 1, Closed cell (Static) method | – | – | 0.002829 kPa and 0.002828 kPa and 0.002831 kPa
295 K, Crystal 1 | – | 261.9 | –
296.23 K, Crystal 1, Closed cell (Static) method | – | – | 0.004057 kPa and 0.004052 kPa
296.25 K, Crystal 1, Closed cell (Static) method | – | – | 0.004063 kPa
298.15 K, Crystal 1 | – | 264.6 | –
298.15 K, Crystal 1, Closed cell (Static) method | – | – | 0.005047 kPa and 0.005039 kPa and 0.005033 kPa
300 K, Crystal 1 | – | 266.1 | –
300.84 K, Crystal 1, Closed cell (Static) method | – | – | 0.006809 kPa
300.85 K, Crystal 1, Closed cell (Static) method | – | – | 0.006831 kPa
300.86 K, Crystal 1, Closed cell (Static) method | – | – | 0.006832 kPa
303 K, Metastable liquid | – | – | 0.01038 kPa and 0.01037 kPa
303.14 K, Crystal 1, Closed cell (Static) method | – | – | 0.008771 kPa and 0.008757 kPa and 0.008761 kPa
305 K, Crystal 1 | – | 270.4 | –
305.45 K, Crystal 1, Closed cell (Static) method | – | – | 0.01128 kPa
308.15 K, Crystal 1, Closed cell (Static) method | – | – | 0.01501 kPa and 0.015 kPa
308.15 K, Metastable liquid | – | – | 0.01672 kPa and 0.0167 kPa
308.18 K, Metastable liquid | – | – | 0.01676 kPa
308.19 K, Metastable liquid | – | – | 0.01678 kPa
308.2 K, Metastable liquid | – | – | 0.01678 kPa
310 K, Crystal 1 | – | 274.6 | –
310.04 K, Crystal 1, Closed cell (Static) method | – | – | 0.01833 kPa
310.07 K, Crystal 1, Closed cell (Static) method | – | – | 0.0184 kPa and 0.01842 kPa
313.38 K, Metastable liquid | – | – | 0.02657 kPa and 0.02658 kPa and 0.02656 kPa
314.67 K, Crystal 1, Closed cell (Static) method | – | – | 0.02949 kPa and 0.02946 kPa
315 K, Crystal 1 | – | 278.9 | –
315.6 K, Crystal 1 | – | 279.4 | –
315.6 K, Liquid | – | 322.1 | –
318.43 K, Liquid | – | – | 0.0408 kPa
318.46 K, Liquid | – | – | 0.04088 kPa
318.47 K, Liquid | – | – | 0.04094 kPa
320 K, Liquid | – | 327.3 | –
323.48 K, Liquid | – | – | 0.06146 kPa
323.5 K, Liquid | – | – | 0.06158 kPa
323.51 K, Liquid | – | – | 0.06164 kPa
325 K, Liquid | – | 333.3 | –
328.56 K, Liquid | – | – | 0.09137 kPa and 0.09138 kPa
330 K, Liquid | – | 339.4 | –
332.75 K, Liquid | – | – | 0.1252 kPa
335 K, Liquid | – | 345.4 | –
337.81 K, Liquid | – | – | 0.1804 kPa
337.82 K, Liquid | – | – | 0.1805 kPa
340 K, Liquid | – | 351.5 | –
342.89 K, Liquid | – | – | 0.2562 kPa and 0.2563 kPa
345 K, Liquid | – | 357.5 | –
347.88 K, Liquid | – | – | 0.3573 kPa
350 K, Liquid | – | 363.5 | –
352.88 K, Liquid | – | – | 0.4914 kPa
352.89 K, Liquid | – | – | 0.4914 kPa
355 K, Liquid | – | 369.6 | –
357.86 K, Liquid | – | – | 0.6662 kPa
357.87 K, Liquid | – | – | 0.6664 kPa
360 K, Liquid | – | 375.6 | –
362.82 K, Liquid | – | – | 0.8914 kPa
362.83 K, Liquid | – | – | 0.8915 kPa
365 K, Liquid | – | 381.5 | –
370 K, Liquid | – | 387.5 | –
Metastable crystal, DSC | 310 | – | –

Conditions | Triple point temperature [K]
Crystal 1, Adiabatic calorimetry | 315.6
Crystal 1, DSC | 315.4
